# Results: patent US20030003071A1, “Hair growth stimulant” (priority 2000, published 2003)
# Assays:
# [1] = system: cultured rat hair follicle epithelial cells; assay: Cell proliferation test using cultured rat hair follicle epithelial cells (alamar blue); assay type: cell-based; settings: object substance concentration 1.0×10^−5% in KBM medium, 2 days culture, negative control 0, positive control (insulin + hydrocortisone) 1
# Description: B. Rat Hair Follicle Epithelial Cells
# 1. Collection of Rat Hair Follicle Epithelial Cells
# (1) Collection of Hair Follicles
# Dorsal skin was collected from newborn (3˜4-day-old) rats, and this collected dorsal skin was soaked two pieces at a time in PBS (−) containing 1% PSF.
# Lower parts such as subcutaneous fat and membranes were then removed from the dermal fat layer using dissecting scissors.
# Next, the dorsal skin was again soaked in PBS (−) containing 1% PSF, and was then soaked overnight at 4° C. in PBS (−) containing 0.25% trypsin (also containing 0.02% EDTA; likewise hereinafter). […]
# A cell freezing liquid (Cellbanker; made by DAIYATRON) was added to the hair follicle epithelial cells, the concentration was adjusted to 1.5×10^7 cells/ml, 1.5×10^7 cells were put into each freezing tube, and storage was carried out by freezing. The number of cells was calculated using a haemacyto meter. […]
# [2] = system: cultured human hair follicle epithelial cells; assay: Cell proliferation test using cultured human hair follicle epithelial cells (alamar blue); assay type: cell-based; settings: object substance concentration 1.0×10^−5% in KBM medium, 2 days culture, negative control 0, positive control (insulin + hydrocortisone) 1
# Method: <Cell Proliferation Tests Using Cultured Hair Follicle Epithelial Cells>
# A. Human Hair Follicle Epithelial Cells
# 1. Collection of Human Hair Follicle Epithelial Cells
# Hair follicles in the growth period of the hair cycle were collected mechanically under a stereoscopic microscope from male human scalp skin obtained as a by-product from surgery.
# The growth period hair follicles were treated for 30 minutes at 37° C. with Dulbecco's modified MEM (DMEM) containing 1000 U/ml dispase and 0.2% collagenase, and the dermal sheath, dermal papilla and hair bulb epithelial tissue were removed using the tip of an injection needle, and then treatment was carried out for 5 minutes at 37° C. with a phosphate buffer solution (PBS(−); ‘(−)’ means not containing calcium ions, magnesium ions etc.) containing 0.05% trypsin and 0.02% EDTA. […]
# Next, the cells were suspended in the above-mentioned serum-free medium, sowing was carried out in a collagen-coated (type I) culture dish at a density of 5000 cells/cm^2, medium exchange was carried out every 2 days until the cells became subconfluent, and then treatment was again carried out for 5 minutes at 37° C. with 0.05 wt % trypsin and 0.02% EDTA, the reaction was then stopped with an equivalent of 0.1% trypsin inhibitor, and centrifuging (800×g, 5 minutes) was carried out. […] The number of cells was calculated using a haemacyto meter. […]
# [3] = system: immortalized outer hair root sheath cells; assay: Immortalized outer hair root sheath cell proliferation test (cellular DNA, Hoechst 33258); assay type: cell-based, human; settings: 10 nM, 1 μM, 100 μM or 10 mM in KBM; 4 days culture; negative control = 100
# Method: <Immortalized Outer Hair Root Sheath Cell Proliferation Tests>
# [Culturing of Immortalized Outer Hair Root Sheath Cells]
# Hair follicles were isolated from human scalp skin using scissors under a stereoscopic microscope. The hair follicles were cut off at the lower part of the sebaceous gland, and enzyme treatment was carried out with collagenase and dispase.
# The hair bulb was cut off with scissors and excluded, and the hair shaft was separated with tweezers.
# The hair shaft was subjected to enzyme treatment with trypsin, and then the reaction was stopped with trypsin inhibitor.
# Centrifuging was carried out, the supernatant was thrown away, and the outer hair root sheath cells were recovered. […]
# First generation cultured outer hair root sheath cells cultured until the cloning confluence of the cells was about 50% were washed with K-SFM, and then infection was carried out by adding the above-mentioned virus in a quantity of 1, 10 or 30 MOI (multiplicity of infection). […]
# The cells were thawed, and were then added to each […], and smashed up with sonication. The cells were then transferred into a cuvette, and the fluorescence intensity was measured at an excitation wavelength of 356 nm and a fluorescence wavelength of 460 nm.
smiles,measurement,setting,value
CNCCS(=O)(=O)O [N-methyltaurine],Cell proliferation effect (cell proliferation index),[1],0.62
same,Cell proliferation effect (cell proliferation index),[2],0.64
same,"Immortalized outer hair root sheath cell activation action (extent of cell proliferation, relative DNA amount, FIG. 1)",[3],has an immortalized outer hair root sheath cell activation action
